# Entries after “also recorded” stand apart in the source; their conditions may differ. Where a SMILES comes first, the peptide text is derived from it. [ ]: non-standard residue; d: D form. The star is where a group is joined. ξ: configuration not given here. Myristoyl = CCCCCCCCCCCCCC(=O)*; dThr(3ξ) = CC(O)[C@@H](N)C(=O)O; Lauroyl = CCCCCCCCCCCC(=O)*; ξIle = CC[C@H](C)C(N)C(=O)O
# What was measured:
# APP/PS1 mice = test: Contextual fear conditioning, APP/PS1 mice; type: in vivo, mouse
# Protocol: Use of peptides in vivo with osmotic pumps. APP/PS1 (a mouse model of Alzheimer's disease) and WT mice were anesthetized with isofluorane, and i.c.v. delivery cannulas (brain alzet kit III) were implanted with a stereotaxic frame at the following coordinates according to the bregma: AP, −0.5 mm; ML, 1 mm; and DV, −2.2 mm. Osmotic minipumps (Alzet; model #1004) were filled with the peptides (Dodecanoyl-[…] (conjugate of peptide SEQ ID 2) or Dodecanoyl-[…] (conjugate of peptide SEQ ID 1), 10 μM peptide in 2 mM in cyclodextrin) or with vehicle (cyclodextrin), and equilibrated in 0.9% NaCl at 37° C. for 48 hr. They were attached to the i.c.v. cannula tubing and subcutaneously implanted at the back. After 21 days, behavioral testing was started. Animal manipulation and data analysis were carried out blind with respect to genotype and treatment.
# Fear conditioning. In this test, mice form an association between a certain context (an experimental cage/tone) and an aversive event (a foot shock) that takes place in that context. […] Training and testing took place in a rodent observation cage (30×37×25 cm) that was placed in a sound attenuating chamber. In the training (conditioning), the mouse was exposed to the conditioning context (180 sec) followed by a tone (CS, 20 sec, 2 kHz, 85 dB). After termination of the tone, a foot shock (US, 0.75 mA, 2 sec) was delivered through a stainless-steel grid floor. Mice received three foot shocks with an intertrial interval of 60 s. The mouse was removed from the fear conditioning box 30 sec after shock termination and returned to their home cages. Testing: In the contextual fear conditioning version, mice were placed back into the original training context for 8 min, during which no foot shock was delivered. […] The animals' behavior was scored by an observer blind to the treatment conditions. Using a time-sampling procedure every 2 s, each mouse was scored blindly as either freezing or active at the instant the sample was taken. […]
# Plasma stability (mouse) = type: in vitro ADME; details: for half-life: mouse, plasma; for half-life / k: one phase decay
# Excerpt: (§1) N, 3 independent experiments.
# (§2) Plasma stability. […] Based on the higher lipophilicity of myristoylated peptides, dodecanoyl peptides are expected to be less protein bound and a higher percentage of the peptide will be available for permeation across biological barriers such as the BBB (only free fraction is available for transport). Thus, Dodecanoyl-[…] is a likely candidate for further development.
# Plasma stability (human) = type: in vitro ADME; details: for k / half-life: human plasma, one phase decay; for half-life: human, plasma
# Excerpt: as §1, §2
# [1] = Brain stability (brain homogenate); type: in vitro ADME, mouse; details: for brain stability (comparative): longer half-lives; for half-life: mouse, brain homogenate
# Excerpt: as §1
# [2] = Liver stability (liver homogenate); type: in vitro ADME, mouse; details: for half-life: mouse, liver homogenate
# Excerpt: as §1
# Liver stability (mouse). Clearance of peptide therapeutics is highly dependent on the high metabolism occurring by liver enzymes able to degrade within minutes the total dose of peptide reaching the bloodstream after intravenous, other parenteral and non-invasive (oral and nasal routes). Peptides with good plasma and liver stability are more likely to remain in circulation and thus elicit higher levels if peptide is brain permeable across the BBB via invasive and non-invasive routes.
# [3] = Stability in simulated intestinal fluid; type: in vitro ADME; details: one phase decay
# Excerpt: as §1
# Simulated intestinal fluids. The first hurdle that a peptide faces upon oral delivery is the high salt and acidic environment of the stomach that can denature the therapeutic peptide as well as the action of pepsin. Enteric coating can overcome this first hurdle easily with currently available industrial processes. Thus, we assessed the stability of the lipidized peptides in simulated intestinal fluids from non-fasted animals i.e. soluble fraction of digestive enzymes present in the upper gastrointestinal (and the major absorptive site for peptides). This soluble fraction contains pancreatic proteases such as trypsin and chymotrypsin, carboxypeptidases and aminopeptidases able to hydrolyse peptides down to di- or tripeptides. […] However, permeability across the BBB needs to be taken into consideration.
# in vitro = details: human; for Papp at 200 μM: BBB permeability; for Papp: Papp0-4 h experiment 2
# Protocol: (§3) The in vitro permeability across a human 2D blood-brain Transwell model (hCMEC/D3 and human astrocytes SC-1800) was tested and enabled the calculation of the apparent permeability coefficient (Papp) for all peptides.
# [4] = tested on: in vitro 2D human BBB model (hCMEC/D3 and human astrocytes SC-1800); test: in vitro
# Protocol: as §3
# [5] = Self-assembly (Thioflavin T, critical aggregate concentration) and TEM; type: physicochemical; details: aqueous media, ThT
# Excerpt: Peptides were able to aggregate in aqueous media and interact with Thioflavin T (ThT). ThT can be immobilized in fibrils/aggregates resulting in an increase in fluorescence. Dodecanoyl-[…] and Myristoyl-[…] result in lower critical aggregate concentrations (CAC) that is ˜5-fold lower from their equivalent lipidized peptides with a threonine. […] CAC is ˜20-fold smaller for myristoylated peptides compared to dodecanoyl peptides. […] This conserved structure can explain the increased stability and likely the success in solubilizing/stabilizing the peptide aggregates in hydroxyl-b-propyl cyclodextrin.
# [6] = Physicochemical properties (water solubility)
# [7] = tested on: in vitro 2D human BBB model (hCMEC/D3 and human astrocytes SC-1800); details: brain permeable peptide, literature; cited from earlier work
# [8] = brain, one phase decay, read-out: t1/2 (h)
# [9] = brain, one phase decay, read-out: t1/2 (min)
# [10] = liver, one phase decay, read-out: t1/2 (h)
# [11] = liver, one phase decay, read-out: t1/2 (min)
# Protocol for hCMEC/D3 cells: Cell metabolic activity was calculated in Human cerebral microvascular endothelial cells (hCMEC/D3) after exposure to the peptides at various concentrations for 4 or 24 hours (n=3, FIG. 7).
# At the specified time points, the MTT solution (20 μL at 5 mg mL^−1 solution in PBS) were added to each well and cells were incubated for 4 hours at 37° C. Subsequently, DMSO (100 μL) was added to dissolve the formazan crystals and absorbance was measured at 570 and 690 nm using Multiskan Go microplate spectrophotometer and data were analysed using the SkanIt software (Thermo Scientific, Paisley, UK). Cell metabolic activity was calculated by subtracting the values at 690 nm from 570 nm to remove background, and dividing the values by the control to express as a percentage (%) of the control (0.5% DMSO):
half-life (Plasma stability (mouse); read-out: t1/2 (h)),half-life (Plasma stability (mouse); read-out: t1/2 (min)),k (Plasma stability (mouse)),k (Plasma stability (human)),half-life (Plasma stability (human); read-out: t1/2 (h)),half-life (Plasma stability (human); read-out: t1/2 (min)),brain stability (comparative) ([1]; brain (mouse)),"k ([1]; brain, one phase decay)","half-life [1, 8]","half-life [1, 9]","k ([2]; liver, one phase decay)","half-life [2, 10]","half-life [2, 11]",k [3],half-life ([3]; read-out: t1/2 (h)),half-life ([3]; read-out: t1/2 (min)),Papp at 200 μM (in vitro),Papp (in vitro),BBB permeability [4],Molecule,Cell viability (hCMEC/D3 cells),further results
0.151 h,0.151 h,4.595 h⁻¹,0.2102 h⁻¹,3.3 h,3.3 h,more brain stable,1.901 h⁻¹,0.365 h,0.365 h,1.146 h⁻¹,0.605 h,0.605 h,0.2337 h⁻¹,2.97 h,2.97 h,> 3.77 ×10⁻⁶ cm/s,5.57 ± 0.289 ×10⁻⁶ cm/s,good,CCCCCCCCCCCC(=O)N[C@@H](CCC(N)=O)C(=O)N[C@H](Cc1c[nH]cn1)C(=O)N[C@@H](CO)C(=O)N[C@H](CCC(N)=O)C(=O)NC(C(=O)N[C@@H](C(=O)N[C@@H](CCCCN)C(=O)N[C@@H](C(=O)O)C(C)C)C(C)O)[C@@H](C)CC (stereo partly shown) (Lauroyl-Q[dH]S[dQ][ξIle][dThr(3ξ)]K[dV]-OH),+++++,"freezing behavior compared with the myristoyl peptide (APP/PS1 mice; FIG. 5): more than the myristoyl peptide; increase in freezing compared to myristoyl-QHSQITKV (APP/PS1 mice; fear conditioning test): 36%; contextual fear conditioning performance (freezing behavior) (APP/PS1 mice; i.c.v. infusion 3-4 weeks, vs vehicle, FIG. 4B): improved the performance; also recorded: enhance freezing behavior; human plasma stability (Plasma stability (human)): good; cell viability (hCMEC/D3 cells): good"
0.869 h,0.869 h,0.7972 h⁻¹,0.3116 h⁻¹,2.22 h,2.22 h,more brain stable,2.714 h⁻¹,0.255 h,0.255 h,0.5092 h⁻¹,1.36 h,1.36 h,0.1534 h⁻¹,4.52 h,4.52 h,< 3.77 ×10⁻⁶ cm/s,2.63 ± 0.0786 ×10⁻⁶ cm/s,poor,CCCCCCCCCCCCCC(=O)N[C@@H](CCC(N)=O)C(=O)N[C@@H](Cc1c[nH]cn1)C(=O)N[C@@H](CO)C(=O)N[C@@H](CCC(N)=O)C(=O)N[C@H](C(=O)N[C@H](C(=O)N[C@@H](CCCCN)C(=O)N[C@H](C(=O)O)C(C)C)[C@@H](C)O)[C@@H](C)CC (Myristoyl-QHSQITKV-OH; C-terminus assumed),+,"remaining at 2 h (Plasma stability (mouse); after 2 hours of incubation, read-out: peptide remaining): ~50%; stability in mouse plasma (comparative) (Plasma stability (mouse); longer half-lives): more plasma stable; half-life ([1]; brain (mouse), read-out: half-life (converted)): 0.26 h; half-life ([2]; liver (mouse), read-out: half-life (converted)): 1.4 h; critical aggregate concentration (CAC), lower than equivalent lipidized peptide with a threonine [5]: ~5 fold; water solubility (comparative with threonine analogue) [6]: higher water solubility; recovery of cells at 24 hours (hCMEC/D3 cells): did not recover"
0.112 h,0.112 h,6.172 h⁻¹,1.604 h⁻¹,0.432 h,0.432 h,–,4.204 h⁻¹,0.165 h,0.165 h,0.03747 h⁻¹,18.5 h,18.5 h,0.2490 h⁻¹,–,–,2.63 to 5.57 ×10⁻⁶ cm/s,3.77 ± 0.386 ×10⁻⁶ cm/s,–,CCCCCCCCCCCCCC(=O)N[C@@H](CCC(N)=O)C(=O)N[C@@H](Cc1c[nH]cn1)C(=O)N[C@H](C(=O)N[C@@H](CCC(N)=O)C(=O)N[C@H](C(=O)N[C@H](C(=O)N[C@@H](CCCCN)C(=O)N[C@H](C(=O)O)C(C)C)[C@@H](C)O)[C@@H](C)CC)[C@@H](C)O (Myristoyl-QHTQITKV-OH; C-terminus assumed),+++++,"k (fast) ([2]; liver, two phase decay, fast): 3.051 (fast), h^−1; k (slow) ([2]; liver, two phase decay, slow): 0.00046 h⁻¹; half-life ([2]; liver, two phase decay, fast, read-out: t1/2 (h) (fast) (converted)): 0.227 h; half-life ([2]; liver, two phase decay, fast, read-out: t1/2 (min) (fast)): 0.227 h; half-life ([2]; liver, two phase decay, slow, read-out: t1/2 (h) (slow) (converted)): 1510 h; half-life ([2]; liver, two phase decay, slow, read-out: t1/2 (min) (slow)): 1510 h; physicochemical properties for successful development [6]: poor"
–,–,–,–,–,–,–,–,–,–,–,–,–,–,–,–,–,–,–,Angiopep-2,–,"Papp, previous reported value [7]: 8.69±1.53 ×10^−6 cm/s"

# Reference: patent publication US20220153782A1, “COMPOUNDS, COMPOSITIONS AND METHODS FOR TREATING A NEUROLOGICAL CONDITION” (MEMORYPLUS LTD., priority 2019, published 2022)
